Legend:
human EP4 receptor [1] = target: T1, human EP4 receptor (Homo sapiens, UniProt P35408); test: Measurement of cAMP responses by Homogeneous Time Resolved Fluorescence (Test 2); type: cell-based; set-up: expressed in transfected cells; conditions: for Results of Test 2 (Functional assay, antagonist % inh): at 10 μM, PGE2 1 nM, HEK-293 cells stably expressing human EP4; for inhibition at 10 µM: HEK293, PGE2 1 nM, HEK-293 cells stably expressing human EP4, read-out: Results of Test 2 (Functional assay, antagonist % inh)
T1 sequence (P35408 whole entry): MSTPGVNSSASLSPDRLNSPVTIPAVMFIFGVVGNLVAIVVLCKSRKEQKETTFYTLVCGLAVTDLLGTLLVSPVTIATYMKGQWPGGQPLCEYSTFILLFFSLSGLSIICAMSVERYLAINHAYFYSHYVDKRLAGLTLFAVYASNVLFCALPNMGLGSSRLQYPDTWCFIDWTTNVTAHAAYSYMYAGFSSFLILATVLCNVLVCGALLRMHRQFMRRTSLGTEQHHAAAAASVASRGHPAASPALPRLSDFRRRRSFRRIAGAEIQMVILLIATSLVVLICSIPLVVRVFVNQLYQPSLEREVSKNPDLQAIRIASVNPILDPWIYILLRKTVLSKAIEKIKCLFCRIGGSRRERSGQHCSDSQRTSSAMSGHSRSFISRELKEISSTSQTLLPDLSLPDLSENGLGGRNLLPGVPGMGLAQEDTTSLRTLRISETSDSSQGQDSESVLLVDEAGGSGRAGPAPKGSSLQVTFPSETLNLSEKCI
Experimental: Test 2: Measurement of cAMP Responses by Homogeneous Time Resolved Fluorescence
cAMP measurements on HEK-293 cells that stably expressed human EP4 receptors were performed by using a system based on Homogeneous Time Resolved Fluorescense (HTRF). This technology allows the direct measurement of cAMP in living cells. The principle of this assay is based on competition between cAMP produced by cells and cAMP-d2 conjugate for the binding with monoclonal anti-cAMP-cryptate conjugate. The HTRF cAMP kit from CisBio was used according to the manufacturer's directions. The experimental procedure was performed as stated below.
Suspended cells (30,000 cells per well) were added to 96-well culture plates in 30 μl of Optimem supplemented with 500 μM IBMX. Compounds were then added in 10 μl of stimulation buffer and incubated at 25° C. for 30 minutes followed by 10 μl of PGE2 to a final concentration of 1 nM. After 30 minutes at 25° C., the reaction was stopped lysing the cells with a mixture of 25 μl of cryptate and 25 μl of cAMP-d2 prepared in the lysis buffer supplied by the manufacturer. Plates were incubated for an additional hour at room temperature and read at 665 nm/620 nm using an UltraEvolution Plate reader (Tecan).
Antagonist percentage inhibition was calculated relating compounds activity to the 0% inhibition of the wells incubated with 1 nM PGE2 alone and 100% inhibition of the wells incubated with 1 nM PGE2 plus 1 μM of the reference antagonist.

human EP4 receptor [2] = target: T1, human EP4 receptor; test: Human EP4 receptor radioligand binding assay (Test 1); set-up: expressed in transfected cells; host or cells: HEK-293 cell membranes; conditions: [3H]-PGE2 1 nM, transfected HEK-293 cell membranes; for Results of Test 1 (Binding assay, % inh): at 10 μM; for inhibition at 10 µM: read-out: Results of Test 1 (Binding assay, % inh)
Experimental: Test 1: Human EP4 Receptor Radioligand Binding Assay
To investigate binding properties of EP4 receptor ligands to human EP4 receptor, transfected HEK-293 cell membranes and [3H]-PGE2 (Perkin Elmer) were used. In 96-well plates the assay was carried out with a total reaction volume of 250 μl, containing 25 μl of membrane suspension (30 μg protein/well), 25 μl of [3H]-PGE2 (1 nM) in either absence or presence of 25 μl of either buffer or PGE2 (10 μM) for total and non-specific binding, respectively. Binding buffer contained 25 mM MES, 10 mM MgCl2 and 1 mM EDTA at pH 6.0. Plates were incubated at 25° C. for 120 minutes. After the incubation period, 200 μl of incubate were transferred to MultiScreen HTS, FB plates (Millipore), filtered and plates were washed 6 times with ice-cold 10 mM MES, 0.01% BSA at pH 6.0. Filters were dried and counted in a MicroBeta scintillation counter (Perkin-Elmer) using EcoScint liquid scintillation cocktail.
Percentage inhibition was calculated relating compounds activity to the 0% inhibition of the wells incubated with 1 nM [3H]-PGE2 alone (total binding) and 100% inhibition of the wells incubated with 1 nM [3H]-PGE2 plus 10 μM PGE2 (non-specific binding).

| Results of Test 2 (Functional assay, antagonist % inh) (human EP4 receptor [1]) | Results of Test 1 (Binding assay, % inh) (human EP4 receptor [2]) | inhibition at 10 µM (human EP4 receptor [1]) [%] | inhibition at 10 µM (human EP4 receptor [2]) [%] | Compound |
| --- | --- | --- | --- | --- |
|  |  | > 75 | > 75 | O=C(O)c1cc(Cl)c(NC(=O)c2nc(N3CCCCC3)ccc2Cl)c(Cl)c1 [Example 57, 3,5-Dichloro-4-(3-chloro-6-(piperidin-1-yl)picolinamido)benzoic acid] |
| $ (% inh >75) | # (% inh >75) |  |  | COc1cc(Cl)cc(-c2ccc(C)c(C(=O)Nc3c(C)cc(C(=O)O)cc3C)c2)c1 [Example 59, 4-(3′-Chloro-5′-methoxy-4-methylbiphenyl-3-ylcarboxamido)-3,5-dimethylbenzoic acid] |
|  |  | > 75 | > 75 | O=C(O)c1cc(Cl)c(NC(=O)c2cc(-c3nccc(C(F)(F)F)n3)ccc2Cl)c(Cl)c1 [Example 60, Sodium 3,5-dichloro-4-(2-chloro-5-(4-(trifluoromethyl)pyrimidin-2-yl)benzamido)benzoate] |

Continued, compound first:

| Compound | Results of Test 2 (Functional assay, antagonist % inh) (human EP4 receptor [1]) | Results of Test 1 (Binding assay, % inh) (human EP4 receptor [2]) | inhibition at 10 µM (human EP4 receptor [1]) [%] | inhibition at 10 µM (human EP4 receptor [2]) [%] |
| --- | --- | --- | --- | --- |
| Cc1ccc(-c2cccc(Cl)c2)cc1C(=O)Nc1cc(C(=O)O)ccc1C(C)C [Example 45, 3-(3′-Chloro-4-methylbiphenyl-3-ylcarboxamido)-4-isopropylbenzoic acid] | $ (% inh >75) | # (% inh >75) |  |  |
| CC(C)c1ccc(C(=O)O)cc1NC(=O)c1cc(-c2cccc(Cl)c2)ccc1Cl [Example 46, 3-(3′,4-Dichlorobiphenyl-3-ylcarboxamido)-4-isopropylbenzoic acid] | $ (% inh >75) | # (% inh >75) |  |  |
| O=C(O)c1cc(Cl)c(NC(=O)c2nc(-c3cccc(Cl)c3)ccc2Cl)c(Cl)c1 [Example 47, 3,5-Dichloro-4-(3-chloro-6-(3-chlorophenyl)picolinamido)benzoic acid] |  |  | > 75 | > 75 |
| Cc1cc(C(=O)O)cc(Cl)c1NC(=O)c1nc(-c2cccc(Cl)c2)ccc1Cl [Example 48, 3-Chloro-4-(3-chloro-6-(3-chlorophenyl)-picolinamido)-5-methylbenzoic acid] |  |  | > 75 | > 75 |
| Cc1ccc(-c2cccc(C(F)(F)F)c2)cc1C(=O)Nc1c(C)cc(C(=O)[O-])cc1C.[Na+] [Example 58, Sodium 3,5-dimethyl-4-(4-methyl-3′-(trifluoromethyl)biphenyl-3-ylcarboxamido)benzoate] | $ (% inh >75) | # (% inh >75) |  |  |

— patent US9926276B2, “Substituted benzamides with activity towards EP4 receptors” (DRACONIS PHARMA, S.L., priority 2013, dated 2018)
